Assay results as given in patent US12091392B2, “Compounds, compositions and methods” (Denali Therapeutics Inc., priority 2019, dated 2024).

System: ATF4 Nano Luciferase reporter (ATF4 translation / ISR pathway activation)
Assay: ATF4 Nano Luciferase reporter integrated stress response (ISR) assay in H4 ATF4-NLuc (clone 17) cells
Format: cell-based
Details: Homo sapiens, 0.5 h, compounds added for 30 minutes at 37° C., then 50 μm sodium arsenite for 6 additional hours, luminescence readout
Text: Cellular stress leads to activation of the integrated stress response pathway through one of four eukaryotic initiation factor 2α kinases and halts global translation, while allowing for the translation of select transcripts like ATF4 (activating transcription factor 4) that are important for the response to cellular stress. During normal conditions, small open reading frames (ORFs) in the 5′ UTR of ATF4 occupy the ribosome and prevent translation of the coding sequence of ATF4. During stress conditions however, the ribosome scans past these upstream ORFs and preferentially begins translation at the coding sequence of ATF4. In this way, the translation, and thus protein level of ATF4 is a readout of ISR pathway activation. Thus, a fusion of the uORFs and the beginning of the coding sequence of ATF to a common cellular reporter like nano-luciferase allows for a sensitive and high-throughput readout of ISR pathway activity.
Certain compounds provided herein were tested in the following assay. The ATF4 Nano Luciferase reporter was constructed by fusing the human full length 5′ untranslated region (5′-UTR) and a small portion of the coding sequence of the ATF4 gene upstream of the Nano Luciferase (NLuc) coding sequence lacking it's start codon. Specifically, nucleotides +1 through +364 (relative to the transcriptional start site) of ATF4 transcript variant 2 (NCBI NM_182810.2) flanked 5′ by EcoRI and 3′ by BamHI restriction enzyme sites were synthesized and cloned into the EcoRI/BamHI cloning sites of pLVX-EF1a-IRES-Puro lentivirus vector (Clontech). Lentiviral particles were produced with Lenti-X single shots (VSV-G, Clontech) according to the manufacturer's instructions and used to transduce a human H4 neuroglioma cell line (ATCC HTB-148). H4 cells were selected with 1.25 μg/mL Puromycin, and clonal cell lines generated by limiting dilution. This cell line was utilized to generate an integrated stress response (ISR) assay to evaluate the activity of ISR pathway inhibitors via luminescence readout. The H4 ATF4-NLuc (clone 17) cell line was plated at a density of 15,000 or 2,500 cells in 96-well or 384-well respectively in DMEM+10% fetal bovine serum. 24-hours later test compounds diluted in dimethyl sulfoxide (DMSO) were added for 30 minutes at 37° C., followed by ISR pathway activation with […] sodium arsenite aqueous solution for 6 additional hours. Nano Glo luciferase reagent (N1150, Promega) was added according to manufacturer instructions and the luminescence signal (corresponding to the level of ATF4 translation and thus ISR pathway activation) was read with a standard plate reader with luminescence detection capabilities. In Table 2, the activity of certain compounds disclosed herein as tested in the assay above is provided.

Row | IC50 | Compound
1 | 21 nM | O=C(COc1ccc(C(F)(F)F)cc1)NC12CC(c3nnc(OCCOCC(F)(F)F)o3)(C1)C2 [Example 6, N-(3-(5-(2-(2,2,2-trifluoroethoxy)ethoxy)-1,3,4-oxadiazol-2-yl)bicyclo[1.1.1]pentan-1-yl)-2-(4-(trifluoromethyl)phenoxy)acetamide]
2 | 23 nM | O=C(COc1ccc(Br)cc1)NC12CC(c3nnc(OCCOC(F)(F)F)o3)(C1)C2 [Example 8, 2-(4-bromophenoxy)-N-(3-(5-(2-(trifluoromethoxy)ethoxy)-1,3,4-oxadiazol-2-yl)bicyclo[1.1.1]pentan-1-yl)acetamide]
3 | 16 nM | O=C(COc1ccc(Br)cc1)NC12CC(c3nnc(OCCOCC(F)(F)F)o3)(C1)C2 [Example 7, 2-(4-bromophenoxy)-N-(3-(5-(2-(2,2,2-trifluoroethoxy)ethoxy)-1,3,4-oxadiazol-2-yl)bicyclo[1.1.1]pentan-1-yl)acetamide]
4 | 6.1 nM | O=C(COc1ccc(C(F)(F)F)c(F)c1)NC12CC(c3nnc(OCCOCC(F)(F)F)o3)(C1)C2 [Example 9, 2-(3-fluoro-4-(trifluoromethyl)phenoxy)-N-(3-(5-(2-(2,2,2-trifluoroethoxy)ethoxy)-1,3,4-oxadiazol-2-yl)bicyclo[1.1.1]pentan-1-yl)acetamide]

Continued, molecule first:

Row | Compound | IC50
5 | O=C(COc1ccc(Cl)cc1)NC12CC(c3nnc(OCCOCC(F)(F)F)o3)(C1)C2 [Example 3] | 16 nM
6 | O=C(COc1ccc(Cl)cc1)NC12CC(c3nnc(OCCOC(F)(F)F)o3)(C1)C2 [Example 1] | 62 nM
7 | O=C(COc1ccc(C(F)(F)F)cc1)NC12CC(c3nnc(NCCOC(F)(F)F)o3)(C1)C2 [Example 4] | 36 nM
8 | CN(CCOC(F)(F)F)c1nnc(C23CC(NC(=O)COc4ccc(C(F)(F)F)cc4)(C2)C3)o1 [Example 5] | 54 nM
9 | O=C(COc1ccc(C(F)(F)F)cc1)NC12CC(c3nnc(OCCOC(F)(F)F)o3)(C1)C2 [Example 2] | 4.9 nM
